# Data published in PubChem BioAssay (NCI).
#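 1) Cells in 96-well plates. 2) Compound, 48 h, 5 concentrations. 3) Linear interpolation between surrounding doses. 4) Unreached endpoint = highest concentration. TGI is the concentration that stops growth completely.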
# Key:
# Experiment in all cases: NCI tumour cell line growth inhibition, 48 h
# [1] = tested on: 786-0 renal
# [2] = tested on: A498 renal
# [3] = tested on: A549 NSCLC
# [4] = tested on: ACHN renal
# [5] = tested on: BT-549 breast
# [6] = tested on: CAKI-1 renal
# [7] = tested on: CCRF-CEM leukemia
# [8] = tested on: COLO 205 colon
# [9] = tested on: DU-145 prostate
# [10] = tested on: EKVX NSCLC
# [11] = tested on: HCC-2998 colon
# [12] = tested on: HCT-116 colon
# [13] = tested on: HCT-15 colon
# [14] = tested on: HL-60(TB) leukemia
# [15] = tested on: HOP-62 NSCLC
# [16] = tested on: HOP-92 NSCLC
# [17] = tested on: HS 578T breast
# [18] = tested on: HT29 colon
# [19] = tested on: IGROV1 ovarian
# [20] = tested on: K-562 leukemia
# [21] = tested on: LOX IMVI melanoma
# [22] = tested on: M14 melanoma
# [23] = tested on: MALME-3M melanoma
# [24] = tested on: MCF7 breast
# [25] = tested on: MDA-MB-231 breast
# [26] = tested on: MDA-MB-435
# [27] = tested on: MDA-N
# [28] = tested on: MOLT-4 leukemia
# [29] = tested on: NCI-H226 lung
# [30] = tested on: NCI-H23 lung
# [31] = tested on: NCI-H460 lung
# [32] = tested on: NCI-H522 lung
# [33] = tested on: OVCAR-3 ovarian
# [34] = tested on: OVCAR-4 ovarian
# [35] = tested on: OVCAR-5 ovarian
# [36] = tested on: PC-3 prostate
# [37] = tested on: RPMI-8226 leukemia
# [38] = tested on: RXF 393 renal
# [39] = tested on: SF-268 CNS
# [40] = tested on: SF-295 CNS
# [41] = tested on: SF-539 CNS
# [42] = tested on: SK-MEL-2 melanoma
# [43] = tested on: SK-MEL-28 melanoma
# [44] = tested on: SK-MEL-5 melanoma
# [45] = tested on: SK-OV-3 ovarian
# [46] = tested on: SN12C renal
# [47] = tested on: SNB-19 CNS
# [48] = tested on: SR leukemia
# [49] = tested on: SW-620 colon
# [50] = tested on: T-47D breast
# [51] = tested on: TK-10 renal
# [52] = tested on: U251 CNS
# [53] = tested on: UACC-257 melanoma
# [54] = tested on: UACC-62 melanoma
# [55] = tested on: UO-31 renal
# [56] = tested on: NCI/ADR-RES ovarian
# [57] = tested on: KM12 colon
# [58] = tested on: OVCAR-8 ovarian
# [59] = tested on: SNB-75 CNS
compound,measurement,setting,value
CNc1ncnc2c1cnn2CCCCO,TGI,[1],> 100 µM
same,TGI,[2],> 100 µM
same,TGI,[3],> 100 µM
same,TGI,[4],> 100 µM
same,TGI,[5],> 100 µM
same,TGI,[6],> 100 µM
same,TGI,[7],> 100 µM
same,TGI,[8],> 100 µM
same,TGI,[9],> 100 µM
same,TGI,[10],> 100 µM
same,TGI,[11],> 100 µM
same,TGI,[12],> 100 µM
same,TGI,[13],> 100 µM
same,TGI,[14],> 100 µM
same,TGI,[15],> 100 µM
same,TGI,[16],> 100 µM
same,TGI,[17],> 100 µM
same,TGI,[18],> 100 µM
same,TGI,[19],> 100 µM
same,TGI,[20],> 100 µM
same,TGI,[21],> 100 µM
same,TGI,[22],> 100 µM
same,TGI,[23],> 100 µM
same,TGI,[24],> 100 µM
same,TGI,[25],> 100 µM
same,TGI,[26],> 100 µM
same,TGI,[27],> 100 µM
same,TGI,[28],> 100 µM
same,TGI,[29],> 100 µM
same,TGI,[30],> 100 µM
same,TGI,[31],> 100 µM
same,TGI,[32],> 100 µM
same,TGI,[33],> 100 µM
same,TGI,[34],> 100 µM
same,TGI,[35],> 100 µM
same,TGI,[36],> 100 µM
same,TGI,[37],> 100 µM
same,TGI,[38],> 100 µM
same,TGI,[39],> 100 µM
same,TGI,[40],> 100 µM
same,TGI,[41],> 100 µM
same,TGI,[42],> 100 µM
same,TGI,[43],> 100 µM
same,TGI,[44],> 100 µM
same,TGI,[45],> 100 µM
same,TGI,[46],> 100 µM
same,TGI,[47],> 100 µM
same,TGI,[48],> 100 µM
same,TGI,[49],> 100 µM
same,TGI,[50],> 100 µM
same,TGI,[51],> 100 µM
same,TGI,[52],> 100 µM
same,TGI,[53],> 100 µM
same,TGI,[54],> 100 µM
same,TGI,[55],> 100 µM
O=C(NCCCNCCCCNCCCNC(=O)c1cc(-c2ccccc2)nc2ccccc12)c1cc(-c2ccccc2)nc2ccccc12,TGI,[1],3 µM
same,TGI,[2],47.5 µM
same,TGI,[3],4.88 µM
same,TGI,[4],42.3 µM
same,TGI,[5],15.5 µM
same,TGI,[6],36.3 µM
same,TGI,[7],3.63 µM
same,TGI,[9],> 59.1 µM
same,TGI,[10],18 µM
same,TGI,[11],4.61 µM
same,TGI,[12],> 100 µM
same,TGI,[13],44.1 µM
same,TGI,[14],3.8 µM
same,TGI,[15],11.2 µM
same,TGI,[16],4.36 µM
same,TGI,[17],4.32 µM
same,TGI,[18],3.57 µM
same,TGI,[19],5.35 µM
same,TGI,[20],3.83 µM
same,TGI,[21],3.12 µM
same,TGI,[22],5.23 µM
same,TGI,[23],4.01 µM
same,TGI,[24],3.78 µM
same,TGI,[25],> 100 µM
same,TGI,[27],3.17 µM
same,TGI,[28],3.73 µM
same,TGI,[30],> 24.1 µM
same,TGI,[31],19.7 µM
same,TGI,[32],5.64 µM
same,TGI,[56],74.2 µM
same,TGI,[33],15.9 µM
same,TGI,[34],> 24.8 µM
same,TGI,[35],5.26 µM
same,TGI,[36],4.33 µM
same,TGI,[38],74.2 µM
same,TGI,[40],14.4 µM
same,TGI,[41],3.62 µM
same,TGI,[43],3.3 µM
same,TGI,[44],26.3 µM
same,TGI,[45],4.85 µM
same,TGI,[46],7.88 µM
same,TGI,[48],4.95 µM
same,TGI,[49],13.1 µM
same,TGI,[50],12.1 µM
same,TGI,[51],23.8 µM
same,TGI,[53],13.3 µM
same,TGI,[54],6.77 µM
same,TGI,[55],40 µM
COC(=O)C(/C(=N/N)C(=O)Nc1cccc(O)c1)c1nc2ccccc2[nH]c1=O (stereo not given),TGI,[1],> 100 µM
same,TGI,[2],> 100 µM
same,TGI,[3],> 100 µM
same,TGI,[4],> 100 µM
same,TGI,[5],> 100 µM
same,TGI,[6],> 100 µM
same,TGI,[10],> 100 µM
same,TGI,[11],> 100 µM
same,TGI,[12],> 100 µM
same,TGI,[13],> 100 µM
same,TGI,[14],> 100 µM
same,TGI,[15],> 100 µM
same,TGI,[16],> 100 µM
same,TGI,[17],> 100 µM
same,TGI,[18],> 100 µM
same,TGI,[19],> 100 µM
same,TGI,[20],> 100 µM
same,TGI,[57],> 100 µM
same,TGI,[21],> 100 µM
same,TGI,[22],> 100 µM
same,TGI,[24],> 100 µM
same,TGI,[25],> 100 µM
same,TGI,[26],> 100 µM
same,TGI,[27],> 100 µM
same,TGI,[28],> 100 µM
same,TGI,[29],> 100 µM
same,TGI,[30],> 100 µM
same,TGI,[31],> 100 µM
same,TGI,[32],> 100 µM
same,TGI,[56],> 100 µM
same,TGI,[33],> 100 µM
same,TGI,[34],> 100 µM
same,TGI,[35],> 100 µM
same,TGI,[58],> 100 µM
same,TGI,[36],> 100 µM
same,TGI,[38],> 100 µM
same,TGI,[39],> 100 µM
same,TGI,[40],> 100 µM
same,TGI,[41],> 100 µM
same,TGI,[42],> 100 µM
same,TGI,[43],> 100 µM
same,TGI,[44],> 100 µM
same,TGI,[45],> 100 µM
same,TGI,[46],> 100 µM
same,TGI,[47],> 100 µM
same,TGI,[59],> 100 µM
same,TGI,[48],> 100 µM
same,TGI,[49],> 100 µM
same,TGI,[50],> 100 µM
same,TGI,[51],> 100 µM
same,TGI,[52],> 100 µM
same,TGI,[53],> 100 µM
same,TGI,[54],> 100 µM
same,TGI,[55],> 100 µM
COC(=O)/C=C(\C)CC/C=C(\C)CCC(O)C(C)(C)O (stereo not given),TGI,[1],42.5 µM
same,TGI,[2],> 100 µM
same,TGI,[3],> 100 µM
same,TGI,[4],75 µM
same,TGI,[5],84 µM
same,TGI,[6],48.5 µM
same,TGI,[7],41.8 µM
same,TGI,[8],38.3 µM
same,TGI,[10],> 100 µM
same,TGI,[11],47.2 µM
same,TGI,[12],44.9 µM
same,TGI,[13],48 µM
same,TGI,[14],42.2 µM
same,TGI,[15],78 µM
same,TGI,[16],> 100 µM
same,TGI,[17],98.5 µM
same,TGI,[18],> 100 µM
same,TGI,[19],> 100 µM
same,TGI,[20],76.7 µM
same,TGI,[57],28.4 µM
same,TGI,[21],31.5 µM
same,TGI,[22],81.3 µM
same,TGI,[23],41.5 µM
same,TGI,[24],> 100 µM
same,TGI,[25],> 100 µM
same,TGI,[27],57.8 µM
same,TGI,[28],39 µM
same,TGI,[29],> 100 µM
same,TGI,[30],98.3 µM
same,TGI,[31],37.8 µM
same,TGI,[56],52.5 µM
same,TGI,[33],65.3 µM
same,TGI,[34],> 100 µM
same,TGI,[35],> 100 µM
same,TGI,[58],67 µM
same,TGI,[36],30.8 µM
same,TGI,[38],59.9 µM
same,TGI,[40],61.6 µM
same,TGI,[41],35.9 µM
same,TGI,[42],36.3 µM
same,TGI,[43],38.2 µM
same,TGI,[44],33.4 µM
same,TGI,[45],> 100 µM
same,TGI,[46],37.5 µM
same,TGI,[47],> 100 µM
same,TGI,[59],> 100 µM
same,TGI,[48],44.6 µM
same,TGI,[49],53.5 µM
same,TGI,[51],> 100 µM
same,TGI,[52],79.3 µM
same,TGI,[53],> 100 µM
same,TGI,[54],77.9 µM
same,TGI,[55],> 100 µM
